Read-outs that look alike come from different tables or passages of the source.

From patent US20070059799A1 (priority 1999, published 2007) come the findings set out here.

One test has as its system A2-supertype alleles. It is filed as binding, human. The settings on record: number of supertype alleles bound; 3 or more considered degenerate.
The next test addresses T1, A*0301 (Homo sapiens, UniProt P04439).
T1 construct: endogenous in cells; host or cells: GM3107
Description: Purified HLA class I peptide binding assay (HLA-A*03).

In another test the test system is CTL. It is filed as cell-based.
The subject of another test is human PBMC. It is filed as cell-based. Particulars: primary cultures, responders/tested.
Setting [1] is: B7-supermotif cross-reactive peptides.

Turning to `CC[C@H](C)[C@H](NC(=O)[C@H](CC(C)C)NC(=O)[C@H](CS)NC(=O)[C@H](CC(C)C)NC(=O)[C@H](CC(C)C)NC(=O)[C@H](CC(C)C)NC(=O)[C@@H](NC(=O)[C@@H](N)Cc1ccccc1)[C@@H](C)CC)C(=O)N[C@@H](Cc1ccccc1)C(=O)N[C@@H](CC(C)C)C(=O)O` [Peptide 1.0895], the Alleles bound in the test with A2-supertype alleles amounted to 1.
Consider `CC(C)C[C@H](NC(=O)[C@H](CC(C)C)NC(=O)[C@@H]1CCCN1C(=O)CNC(=O)[C@H](CC(C)C)NC(=O)[C@@H](N)Cc1ccccc1)C(=O)N[C@H](C(=O)N[C@@H](CC(C)C)C(=O)N[C@@H](CCC(N)=O)C(=O)N[C@@H](C)C(=O)O)C(C)C` [Peptide 3.0205], for which the Alleles bound in the test with A2-supertype alleles was determined as 1.
As a reminder, the IC50 is the midpoint of a concentration-inhibition curve. As to `CC[C@H](C)[C@H](NC(=O)[C@H](Cc1c[nH]c2ccccc12)NC(=O)[C@@H](NC(=O)CNC(=O)[C@H](Cc1ccccc1)NC(=O)[C@H](CO)NC(=O)[C@@H](N)C(C)C)C(C)C)C(=O)N[C@@H](CCCNC(=N)N)C(=O)O` [Peptide 26.0023], the IC50 at A*0301 is 2.75 µM. That is a single-digit micromolar value.
Take `CC[C@H](C)[C@H](NC(=O)[C@@H](N)Cc1c[nH]c2ccccc12)C(=O)N[C@@H](CC(C)C)C(=O)N[C@@H](CCCNC(=N)N)C(=O)NCC(=O)N[C@H](C(=O)N[C@@H](CO)C(=O)N[C@@H](Cc1ccccc1)C(=O)N[C@H](C(=O)O)C(C)C)[C@@H](C)O` [Peptide 927.24]: the Alleles bound in the test with A2-supertype alleles is listed as 1.
On the same count and under the same terms, then `CC(C)C[C@H](NC(=O)[C@H](CO)NC(=O)[C@H](CC(C)C)NC(=O)[C@@H](N)Cc1c[nH]c2ccccc12)C(=O)N[C@@H](CC(C)C)C(=O)N[C@H](C(=O)N1CCC[C@H]1C(=O)N[C@@H](Cc1ccccc1)C(=O)N[C@H](C(=O)O)C(C)C)C(C)C` [Peptide 1013.0102], with 4; and `CSCC[C@H](NC(=O)CNC(=O)[C@H](CCC(N)=O)NC(=O)[C@H](Cc1ccc(O)cc1)NC(=O)[C@H](CC(=O)O)NC(=O)[C@H](CC(C)C)NC(=O)[C@H](CC(C)C)NC(=O)[C@@H](N)C(C)C)C(=O)N[C@@H](CC(C)C)C(=O)O` [Peptide 1069.09], with 2.
As to `CC[C@H](C)[C@H](NC(=O)CNC(=O)[C@H](C)NC(=O)[C@H](CCCCN)NC(=O)[C@H](Cc1c[nH]c2ccccc12)NC(=O)[C@H](CC(C)C)NC(=O)[C@@H](NC(=O)[C@H](Cc1c[nH]cn1)NC(=O)[C@H](CC(C)C)NC(=O)[C@@H](N)Cc1ccc(O)cc1)[C@@H](C)O)C(=O)O` [Peptide 1069.11], in the test with A2-supertype alleles, the Alleles bound is given as 2.
The same measure, in the same setting: then `CC[C@H](C)[C@H](NC(=O)[C@H](Cc1c[nH]cn1)NC(=O)[C@H](Cc1ccccc1)NC(=O)[C@H](Cc1c[nH]c2ccccc12)NC(=O)[C@H](CC(C)C)NC(=O)[C@@H](N)CC(C)C)C(=O)N[C@@H](CO)C(=O)N[C@@H](CS)C(=O)N[C@@H](CC(C)C)C(=O)O` [Peptide 1142.01], with 2.
In the case of `CC(C)C[C@H](NC(=O)[C@H](CS)NC(=O)[C@H](Cc1c[nH]cn1)NC(=O)[C@@H]1CCCN1C(=O)[C@@H](N)Cc1ccccc1)C(=O)N[C@@H](C)C(=O)N[C@@H](Cc1ccccc1)C(=O)N[C@@H](CO)C(=O)N[C@@H](Cc1ccc(O)cc1)C(=O)O` [Peptide 1145.08], the Immunogenicity overall result with CTL (setting [1]) is recorded as “−”; with CTL (positive when responders noted in primary cultures, acute patients or transgenic mice) it was “unk”. Moreover, the Immunogenicity primary in the test with human PBMC (setting [1]) and in the test with human PBMC was 0/4 throughout.
Compound `CC[C@H](C)[C@H](NC(=O)CNC(=O)[C@H](C)NC(=O)[C@H](CCCCN)NC(=O)[C@H](Cc1c[nH]c2ccccc12)NC(=O)[C@H](CC(C)C)NC(=O)[C@@H](NC(=O)[C@@H](N)Cc1c[nH]cn1)[C@@H](C)O)C(=O)N[C@@H](CC(C)C)C(=O)N[C@@H](Cc1ccc(O)cc1)C(=O)N[C@@H](CCCCN)C(=O)O` [Peptide 1147.16] had an IC50 on A*0301 of 0.02 µM.
